Assay results reported in paper PMC8859982 (Journal of medicinal chemistry, 2018).
Values after ≈ are worked out from the molar mass of the structure shown. Read-outs that look alike come from different tables or passages of the source.

Assays:
[1] = pH 7.4; cited from earlier work
HCT-116 = details: HCT-116, comparator brequinar
DHODH = DHODH (Homo sapiens, UniProt Q02127); experiment: DHODH inhibition assay; type: biochemical; details: for LipE: lipophilic ligand efficiency from DHODH pIC50 (M) and cLogP
MIA PaCa-2 = details: MIA PaCa-2, comparator brequinar
Thermodynamic solubility = type: physicochemical; details: for solubility thermodynamic: PBS, pH 7.4, Thermodynamic solubility, PBS pH 7.4, CLND, each entry a single run
[2] = Pharmacokinetic study in female CD-1 mice; type: in vivo
[3] = clinical trial, cited from earlier work

Chain of DHODH (Q02127 whole entry): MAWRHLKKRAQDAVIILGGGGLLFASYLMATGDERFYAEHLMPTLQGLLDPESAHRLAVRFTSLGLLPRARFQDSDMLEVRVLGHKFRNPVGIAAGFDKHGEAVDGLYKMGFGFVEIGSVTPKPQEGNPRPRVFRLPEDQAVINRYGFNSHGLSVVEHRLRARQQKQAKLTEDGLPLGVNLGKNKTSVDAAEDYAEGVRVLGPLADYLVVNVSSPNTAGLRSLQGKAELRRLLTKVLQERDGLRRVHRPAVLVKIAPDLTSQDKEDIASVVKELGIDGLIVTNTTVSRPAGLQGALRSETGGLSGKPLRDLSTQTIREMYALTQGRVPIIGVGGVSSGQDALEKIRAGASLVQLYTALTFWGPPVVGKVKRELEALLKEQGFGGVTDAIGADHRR

For `Cc1c(-c2ccc(-c3ccccc3F)cc2)nc2ccc(F)cc2c1C(=O)O` [Brequinar sodium], the water solubility [1] is given as less than 100 µg/mL.
In the case of `Cc1c(-c2ccc(-c3ccccc3F)cc2)nc2cnc(C(F)(F)F)cc2c1C(=O)O` [compound 52, 2-(2’-Fluoro-[1,1’-biphenyl]-4-yl)-3-methyl-6-(trifluoromethyl)-1.7-naphthyridine-4-carboxylic Acid], the “fold more potent than brequinar in the MTT assay” value (HCT-116) is reported as “at least 2 fold”, the LipE (DHODH) is reported as 2.74 and the “fold more potent than brequinar in the MTT assay” value (MIA PaCa-2) is reported as “at least 2 fold”.
For `Cc1c(-c2ccc(-c3ccccc3)cc2)nc2ncccc2c1C(=O)O` [compound 45, 2-([1,1′-Biphenyl]-4-yl)-3-methyl-1,8-naphthyridine-4-carboxylic Acid], the LipE (DHODH) was 1.75.
In the case of `O=C(O)c1cc(-c2ccc(C3CCCCC3)cc2)nc2ccccc12` [compound 3, 2-(4-Cyclohexylphenyl)quinoline-4-carboxylic Acid], the solubility thermodynamic (Thermodynamic solubility) is reported as 14.5 µg/mL (≈ 43.8 µM).
`Cc1ccc(-c2ccc(-c3nc4cnccc4c(C(=O)O)c3C)cc2)c(Cl)n1` [compound 50, 2-(4-(2-Chloro-6-methylpyridin-3-yl)phenyl)-3-methyl-1,7-naphthyridine-4-carboxylic Acid] gave a LipE (DHODH) of 1.65.
For `O=C(O)c1cc(-c2ccc(-c3cccnc3F)cc2)nc2ccccc12` [compound 28, 2-(4-(2-Fluoropyridin-3-yl)phenyl)quinoline-4-carboxylic Acid], the “fold less potent than 22 (DHODH)” value (DHODH; comparator 22) was 9 fold, the “fold less potent than 26 (DHODH)” value (DHODH; comparator 26) was 64 fold and the LipE (DHODH) was 1.45.
With `Cc1c(-c2ccc(-c3ccccc3)cc2)nc2cnc(C(F)(F)F)cc2c1C(=O)O` [compound 48, 2-([1,1′-Biphenyl]-4-yl)-3-methyl-6-(trifluoromethyl)-1,7-naphthyridine-4-carboxylic Acid] the LipE (DHODH) was 2.63.
`Cc1c(-c2ccc(-c3cccnc3Cl)cc2)nc2ccc(F)cc2c1C(=O)O` [compound 41, 2-(4-(2-Chloropyridin-3-yl)phenyl)-6-fluoro-3-methylquinoline-4-carboxylic Acid] gave a half-life ([2]; female, CD-1, mouse, plasma, intravenous, oral) of 2.73 to 2.78 h, a CL-F ([2]; mice, PO 20 mg/kg) of 9.25 mL/min/kg and a Vz_F ([2]; mice, PO 20 mg/kg) of 2.226 L/kg. For the same compound, the solubility thermodynamic (Thermodynamic solubility) was 393 µg/mL (≈ 1000 µM).
With `Cc1c(-c2ccc(-c3ccccc3)cc2)nc2cnccc2c1C(=O)O` [compound 46, 2-([1,1′-Biphenyl]-4-yl)-3-methyl-1,7-naphthyridine-4-carboxylic Acid] the “fold more soluble than brequinar” value (Thermodynamic solubility; PBS at pH 7.4) was 2.5–3 ×, the solubility thermodynamic (Thermodynamic solubility) was 1050 µg/mL (≈ 3100 µM) and the LipE (DHODH) was 3.39.
Compound `Cc1c(-c2ccc(-c3ccccc3)cc2)nc2ccncc2c1C(=O)O` [compound 47, 2-([1,1′-Biphenyl]-4-yl)-3-methyl-1,6-naphthyridine-4-carboxylic Acid] has a LipE (DHODH) of 1.39.
`Cc1c(-c2ccc(-c3cccnc3Cl)cc2)nc2cnc(C(F)(F)F)cc2c1C(=O)O` [compound 51, 2-(4-(2-Chloropyridin-3-yl)phenyl)-3-methyl-6-(trifluoromethyl)-1.7-naphthyridine-4-carboxylic Acid] showed a LipE (DHODH) of 2.69.
With `Cc1c(-c2ccc(-c3cccnc3Cl)cc2)nc2cnccc2c1C(=O)O` [compound 49, 2-(4-(2-Chloropyridin-3-yl)phenyl)-3-methyl-1,7-naphthyridine-4-carboxylic Acid] the LipE (DHODH) was 3.46.
In the case of `Cc1c(-c2ccc(-c3ccccc3F)cc2)nc2ccc(F)cc2c1C(=O)O` [compound 1, brequinar], the CL ([3]; IV 8 mg/m^2) is given as 3.2 L/h/m^2, the Cmax ([3]; IV 8 mg/m^2) is given as 1800 ng/mL and the Vss ([3]; IV 8 mg/m^2) is given as 8.2 L/m^2. For the same compound, the t1/2 ([3]; IV 8 mg/m^2) was 2.9 h, the CL ([3]; IV 16 mg/m^2) was 4.9 L/h/m^2 and the Cmax ([3]; IV 16 mg/m^2) was 2700 ng/mL. For the same compound, the Vss ([3]; IV 16 mg/m^2) was 11.6 L/m^2, the t1/2 ([3]; IV 16 mg/m^2) was 3.1 h and the Vss ([3]; IV 36 mg/m^2) was 7.48 L/m^2. It also gave a solubility thermodynamic (Thermodynamic solubility) of 407 µg/mL (≈ 1090 µM) and a LipE (DHODH) of 2.20.
